The results in this text go back to PubChem BioAssay (NCI).

Assay in all cases: growth of human tumour cells (NCI), 48 h
For test [1], the system named is HL-60(TB) leukemia.
In test [2] the test system is HT29 colon.
Test [3] relates to MDA-N.
For test [4], the system named is HS 578T breast.
The test system of test [5] is OVCAR-4 ovarian.
Test [6] relates to SK-OV-3 ovarian.

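Where inhibition never reached the appropriate level, the endpoint shown equals the highest concentration tested. Otherwise, values were interpolated linearly from a five-concentration, 48-hour dose response in 96-well plates. At the GI50, growth is halved. TGI denotes the concentration required for complete inhibition of growth.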

For the compound `CCOC(=O)c1c(N)sc2c1C(C(=O)OCC)CCCC2` (configuration not stated), the TGI in test [1], in test [2], in test [3] and in test [4] was more than 100 µM each time.
For the compound `FC1=C2C3CCC(C3)C2C1(F)F` (configuration not stated), the TGI in test [1], in test [2], in test [3], in test [5] and in test [6] was more than 100 µM in each case.
Turning to `C/C(=N\Nc1nc2ccccc2s1)c1ccncn1`, the TGI is 14 µM in test [2]; more than 100 µM in test [3]; 26.2 µM in test [4]; 42.4 µM in test [5]; more than 32.1 µM in test [6].
In the case of `ClC1=NN=C(c2c[nH]c3ccccc23)CC1NCc1ccccc1` (configuration not stated), the TGI in test [1], in test [2], in test [3], in test [4] and in test [6] was more than 100 µM each time.
With `O=C1c2cc3c(cc2-c2c1c1cc(F)c(F)cc1c(=O)n2CCCn1ccnc1)OCO3`, the GI50 in test [1] is 11.3 nM; in test [2], 18.9 nM; in test [4] it was 1890 nM; in test [5] it was 270 nM. In addition, the TGI in test [1] was 16.6 µM; in test [2] it was more than 100 µM; in test [4] it was more than 100 µM; in test [5], more than 100 µM.
For `CC(Nc1ccc(Cl)cc1)c1ccncc1` (configuration not stated), the TGI is more than 100 µM in test [2]; more than 100 µM in test [3]; more than 100 µM in test [4]; more than 100 µM in test [5]; 11.8 µM in test [6].
For the compound `CCC1(c2ccc(N3C(=O)c4cccc5cc([N+](=O)[O-])cc(c45)C3=O)cc2)CCC(=O)NC1=O` (configuration not stated), the TGI was more than 100 µM in test [2], 64.4 µM in test [4], 42.4 µM in test [5] and 39.5 µM in test [6].
For the compound `O=C1NC(O)c2cc3ccccc3cc2O1` (configuration not stated), the TGI in test [1], in test [2], in test [4], in test [5] and in test [6] was more than 100 µM in each case.
On to `C/C(=C1\N=C(c2ccccc2)OC1=O)c1ccccc1`, for which the TGI in test [1], in test [2], in test [4], in test [5] and in test [6] was more than 100 µM in each case.
Take `N[C@@H](CCC(=O)NC(Cc1ccccc1)C(=O)NCP(=O)(O)O)C(=O)O` (some centres not stated): the TGI in test [1], in test [2], in test [3] and in test [4] was more than 100 µM throughout.
For `N#Cc1c(-c2ccc([N+](=O)[O-])cc2)c(C#N)c(=O)n(NS(=O)(=O)c2ccccc2)c1S`, the TGI in test [2] is more than 100 µM; in test [4], 58.5 µM; in test [5], more than 100 µM; in test [6], more than 100 µM.
With `C=C(NC(=O)C(=C)NC(=O)c1ccc2c(n1)-c1coc(n1)C(=C)NC(=O)C(=C)NC(=O)c1nc(oc1C)C(=C)NC(=O)C(C(C)(C)O)NC(=O)C(=C)NC(=O)c1coc(n1)/C(=C/C)NC(=O)[C@H]([C@@H](C)O)NC(=O)c1csc-2n1)C(N)=O` (some centres not stated), the TGI in test [1] was more than 87.5 µM; in test [2], more than 8.75 µM; in test [3] it was more than 87.5 µM; in test [4], more than 87.5 µM; in test [5], more than 87.5 µM.
Consider `CCc1nc(N)c2nc(-c3cccs3)oc2n1`, for which the TGI in test [1], in test [2], in test [3] and in test [4] was more than 100 µM each time.
`C=C1CCC[C@@H](C)C(O)[C@@H]2OC(=O)C(=C)[C@@H]2C[C@@H](OC(C)=O)[C@@]2(C)CC[C@@H]1O2` (some centres not stated): the TGI in test [2] came out at 15.3 µM; in test [4], 29.4 µM; in test [5] it was 36.7 µM; in test [6] it was 40.8 µM.
As for `COP(=O)(OC)OCN(C)CC/C=C(\C)CC/C=C(\C)CCC=C(C)C`, the TGI in test [3] is 29.3 µM; in test [5] it was more than 100 µM; in test [6], more than 100 µM.
Turning to `COc1cc2c(/C=C3/C(=O)Nc4ccccc43)c(Cl)n(Cc3ccc(Cl)cc3)c2cc1C`, the TGI turned out to be 2.33 µM in test [1], 9.01 µM in test [4], 18.6 µM in test [5] and 2.85 µM in test [6].
As to `CCOP(=O)(/C=C/n1cc(C)c(=O)[nH]c1=O)OCC`, the TGI in test [1], in test [2], in test [3], in test [5] and in test [6] was more than 100 µM throughout.
As to `Nc1c(C(=O)c2ccc(Cl)c(Cl)c2)[nH]c(NCc2ccccc2)c1C(=S)Nc1ccccc1`, the TGI worked out at 38.4 µM in test [1]; 11 µM in test [2]; 14.5 µM in test [3]; 15.8 µM in test [5]; 32.2 µM in test [6].
For the compound `CC1=C(C)C(=O)C(C2=CC(=O)c3ccccc3C2=O)=C(C2=CC(=O)c3ccccc3C2=O)C1=O`, the TGI in test [1] was 12.3 µM; in test [2] it was 28.7 µM; in test [4], more than 100 µM; in test [5], 42.8 µM; in test [6], 45.8 µM.
Consider `COc1cc2c[n+]3c4c(c2c(OC)c1OC)CCCC4CC3` (configuration not stated), for which the TGI in test [2] is more than 100 µM; in test [3], more than 100 µM; in test [4] it was 62.3 µM; in test [5] it was more than 100 µM; in test [6] it was more than 100 µM.
Turning to `COC(=O)C1=C(CCCCO[Si](C)(C)C(C)(C)C)NC(=O)N2[C@H](CCOCc3ccccc3)CC[C@@H]12`, the TGI in test [3], in test [5] and in test [6] was more than 100 µM throughout.
Consider `C=C1c2nc3ccccc3n2C=C(c2ccc(C)cc2)N1c1ccc(OC)cc1`, for which the TGI was 55.6 µM in test [1]; more than 91.2 µM in test [2]; more than 100 µM in test [4]; more than 100 µM in test [5]; more than 100 µM in test [6].
As to `O=C(O)c1c(CC(Cc2ccc3c(c2)CCC3)C(=O)O)ccc2c1CCC2` (configuration not stated), the TGI in test [1], in test [2], in test [3], in test [4] and in test [5] was more than 100 µM each time.
For the compound `CC(O)c1nc(C#N)c(N)o1` (configuration not stated), the TGI in test [1], in test [2], in test [3], in test [4] and in test [6] was more than 100 µM throughout.
